Test results published in patent publication US20120270928A1, “MICRORNA COMPOUNDS AND METHODS FOR MODULATING MIR-21 ACTIVITY” (REGULUS THERAPEUTICS INC., priority 2011, published 2012).
Strand notation (5' to 3'): a small letter for the sugar, then the base; units joined by * are phosphorothioate-linked, units joined directly phosphodiester-linked; [ ] holds rarer units or linkages, { } end groups; capitals alone tell only the bases. e = 2'-O-(2-methoxyethyl) (MOE); l = locked nucleic acid (LNA); k = constrained ethyl (cEt); [5mC] = 5-methylcytosine; d = 2'-deoxy (DNA)

Experiments:
[1] = tested on: UUO model of kidney fibrosis; assay: Unilateral ureteral obstruction (UUO) model of kidney fibrosis: kidney collagen 1A1 and collagen 3A1 expression by real-time PCR; format: in vivo, mice; settings: UUO; 20 mg/kg at days -5, -3, +3; kidney at day 10
Protocol: Unilateral ureteral obstruction (UUO) is a well-established experimental model of renal injury leading to interstitial fibrosis, and thus is used as an experimental model that is reflective of human kidney disease. UUO is induced by surgically ligating a single ureter. As fibrosis is characterized by an increase in collagen, the presence and extent of kidney fibrosis may be determined by measuring collagen content. Both collagen 1A1 (Col 1A1) and collagen 3A1 (Col 3A1) are measured to assess collagen content. Kidney fibrosis may be visualized by staining tissue samples with picro-sirius red to detect increases in collagen content. Kidney fibrosis may also be observed by measuring the amount of hydroxyproline, which is a major component of collagen, in a sample.
The cEt-containing anti-miR-21 compounds found to be active in the luciferase assay were tested in the UUO model of kidney fibrosis. 25919 comprising 2′-MOE and 2′-fluoro modifications is known to inhibit miR-21 activity in vivo and was included as a positive control. Groups of 8 animals each were treated as follows: UUO only, UUO with PBS, or UUO with anti-miR-21 compound. Relative to the day of the UUO procedure, PBS or anti-miR-21 compound was administered at days −3, −1, and +5. Anti-miR-21 compounds were administered at a dose of 20 mg/kg. As the anti-miR compounds were administered prior to the UUO procedure, this dosing regimen is considered a prophylactic treatment. At day 11, animals were sacrificed and kidney was isolated for measurement of collagen expression. Collagen expression was measured by real-time PCR and normalized first to GAPDH and then to the sham control animals.
The UUO study was repeated to confirm the activity of 25070. The anti-miR was administered subcutaneously at a dose of 20 mg/kg.
Control treatment groups included UUO only (sham) and UUO with PBS administered subcutaneously. An additional control group included UUO with Tween-MC/20 carrier perorally. 25070 administered subcutaneously at dose of 20 mg/kg at 5 days prior to, 2 days prior to, and 3 days after, the UUO procedure. Irbesartan was administered perorally on daily on days 0 through 7 following the UUO procedure. Animals were sacrificed on Day 10 following the UUO procedure. Kidney tissue was collected for measurement of collagen 1A1 and collagen 3A1 expression.
Compounds 25220 and 25221, as well as 25923, were tested in the UUO model for their effects on fibrosis. Groups of 8 animals each were treated as follows: sham surgery, UUO with PBS, UUO with 25220, UUO with 25221, or UUO with 25923. Relative to the day of the UUO procedure, PBS or anti-miR-21 compound was administered at days −5, −3, and +3. Anti-miR-21 compounds were administered at a dose of 20 mg/kg. As the anti-miR compounds were administered prior to the UUO procedure, this dosing regimen is considered a prophylactic treatment. At day 10, animals were sacrificed and kidney was isolated for measurement of collagen expression. Collagen expression was measured by real-time PCR and normalized to GAPDH.

miR-21 = miR-21 luciferase sensor assay in Hela cells; format: cell-based; settings: for inhibition of miR-21 activity in the luciferase assay (in words) / luciferase value normalized to beta-galactosidase activity: Hela cells
Protocol: The compounds were assessed for miR-21 inhibitory activity in a luciferase assay. A microRNA luciferase sensor construct was engineered using pGL3-MCS2 (Promega). The construct was introduced into Hela cells to test the ability of anti-miR compounds to inhibit activity of miR-21. In this assay, miR-21 present in the Hela cells binds to its cognate site(s) in the luciferase sensor construct, and suppresses luciferase expression. When the appropriate anti-miR is introduced into the cells, it binds to miR-21 and relieves suppression of luciferase expression. Thus, in this assay anti-miRs that are effective inhibitors of miR-21 expression will cause an increase in luciferase expression.
Hela cells (ATCC), stably transfected with a luciferase construct engineered to contain a sequence complementary of miR-21, were seeded in T-170 flasks (BD Falcon) at 3.5*10^6 cells/flask. Hela cells were grown in Dulbecco's Modified Eagle Medium with High Glucose (Invitrogen).
Each flask of Hela cells was transfected with 0.5 ug of a phRL sensor plasmid (Promega) expressing Renilla to be used in normalization. Hela cells were transfected using 20 ul Lipofectamine 2000/flask (Invitrogen). After 4 hours of transfection, cells were washed with PBS and trypsinized Hela cells were plated at 40 k/well in 24 well plates (BD Falcon) and left overnight.
Hela cells were transfected with anti-miRs using Lipofectin (Invitrogen) at 2.5 ul Lipofectin/100 nM ASO/ml Opti-MEM I Reduced Serum Medium (Invitrogen) for 4 hours. After ASO transfection, Hela cells were refed with Dulbecco's Modified Eagle Medium with High Glucose (Invitrogen).
Hela cells are passively lysed and luciferase activity measured using the Dual-Luciferase Reporter Assay System (Promega).
The luciferase assay was performed to test the ability of anti-miRs with the nucleoside patterns described herein to inhibit the activity of miR-21. Results were compared to a ‘mock’ treatment, in which cells received no anti-miR treatment. The experiment was repeated and results of two experimental replicates are shown in the following Table B, as the luciferase value normalized to beta-galactosidase activity.
The luciferase assay was performed as described herein to test the ability of anti-miRs in Table F to inhibit the activity of miR-21. Results were compared to a ‘mock’ treatment, in which cells received no anti-miR treatment. The experiment was repeated and results of two experimental replicates are shown in the following Table D, as fold change in luciferase value relative to the mock treatment.

[2] = concentration of anti-miR compound 0.2 (unit not given)
[3] = concentration of anti-miR compound 0.6 (unit not given)
[4] = concentration of anti-miR compound 1.9 (unit not given)
[5] = concentration of anti-miR compound 5.6 (unit not given)
[6] = concentration of anti-miR compound 16.7 (unit not given)
[7] = concentration of anti-miR compound 50.0 (unit not given)
[8] = 500 nM oligonucleotide, two experimental replicates

Substance | collagen 1A1 expression (FIG. 2A, in words) [1] | collagen 3A1 expression (FIG. 2B, in words) [1] | inhibition of miR-21 activity in the luciferase assay (in words) (miR-21) | fold change in luciferase value relative to the mock treatment (miR-21; [2]) | fold change in luciferase value relative to the mock treatment (miR-21; [3]) | fold change in luciferase value relative to the mock treatment (miR-21; [4]) | fold change in luciferase value relative to the mock treatment (miR-21; [5]) | fold change in luciferase value relative to the mock treatment (miR-21; [6]) | fold change in luciferase value relative to the mock treatment (miR-21; [7]) | luciferase value normalized to beta-galactosidase activity (miR-21; 4 nM oligonucleotide) | luciferase value normalized to beta-galactosidase activity (miR-21; 20 nM oligonucleotide) | luciferase value normalized to beta-galactosidase activity (miR-21; 100 nM oligonucleotide) | luciferase value normalized to beta-galactosidase activity (miR-21; [8]) | luciferase value normalized to beta-galactosidase activity (miR-21; .16 nM oligonucleotide) | luciferase value normalized to beta-galactosidase activity (miR-21; .8 nM oligonucleotide)
AECSATCSAGTCSTGAUSAAGCSUsAS (ACATCAGTCTGATAAGCTA; sugar and backbone modifications, chemistry not fully specified) [Compound 25221] | reduced collagen 1A1 and collagen 3A1 expression by a stastically significant amount | reduced collagen 1A1 and collagen 3A1 expression by a stastically significant amount |  |  |  |  |  |  |  |  |  |  |  |  | 
AECSATCSASGTCSUSGAUSASAGCSUsAE (ACATCAGTCTGATAAGCTA; sugar and backbone modifications, chemistry not fully specified) [Compound 25220] | reduced collagen 1A1 and collagen 3A1 expression by a stastically significant amount | reduced collagen 1A1 and collagen 3A1 expression by a stastically significant amount |  |  |  |  |  |  |  |  |  |  |  |  | 
AE^MeCLAETE^MeCLAEGETE^MeCLTEGEAE^MeTLAEAEGE^MeCLTEAE (antisense eA*l[5mC]*eA*eT*l[5mC]*eA*eG*eT*l[5mC]*eT*eG*eA*lT*eA*eA*eG*l[5mC]*eT*eA) [Compound 25117, variation of 25070: each non-bicyclic nucleoside is 2′-MOE, each cytosine 5-methyl cytosine] |  |  | not effective inhibitors of miR-21 | 1.05 fold change | 1.15 fold change | 1.14 fold change | 3.64 fold change | 7.36 fold change | 2.91 fold change |  |  |  |  |  | 
AE^MeCSAETE^MeCSAEGETE^MeCSTEGEAE^MeTSAEAEGE^MeCSTEAE (antisense eA*k[5mC]*eA*eT*k[5mC]*eA*eG*eT*k[5mC]*eT*eG*eA*kT*eA*eA*eG*k[5mC]*eT*eA; further chemistry not given here) [Compound 25116, variation of 25070: each non-bicyclic nucleoside is 2′-MOE, each cytosine 5-methyl cytosine] |  |  | not effective inhibitors of miR-21 | 1.06 fold change | 0.98 fold change | 1.06 fold change | 2.47 fold change | 5.64 fold change | 1.98 fold change |  |  |  |  |  | 
AE^MeCSAT^MeCSAGT^MeCSTGATSAAG^MeCSTAE (antisense ACATCAGTCTGATAAGCTA; MOE ends, cEt, 5-methyl C, unmarked nucleosides not given here, further chemistry not given here) [Compound 25922, variation of 25070: each cytosine is a 5-methyl cytosine] |  |  | inhibition of miR-21 in a dose-dependent manner | 1.02 fold change | 1.10 fold change | 1.34 fold change | 8.81 fold change | 11.60 fold change | 11.46 fold change |  |  |  |  |  | 
AE^MeCSAT^MeCSAGT^MeCSTGATSAAG^MeCSTAS (antisense eA*k[5mC]*dA*dT*k[5mC]*dA*dG*dT*k[5mC]*dT*dG*dA*kT*dA*dA*dG*k[5mC]*dT*kA; further chemistry not given here) [Compound 25924, variation of 25070: 3′-terminal cEt nucleoside and each cytosine is a 5-methyl cytosine] |  |  | inhibition of miR-21 in a dose-dependent manner | 1.10 fold change | 1.25 fold change | 1.37 fold change | 7.80 fold change | 13.01 fold change | 8.99 fold change |  |  |  |  |  | 
AeTe^MeCeASGSTe^MeCeTeGSASTeAeASGS^MeCeTeAe [Compound 25077] |  |  |  |  |  |  |  |  |  | 45 | 33 | 42 | 40 | 34 | 33
AeTe^MeCeAeGeTe^MeCeTeGSASTeASASGe^MeCeUSAS [Compound 25731] |  |  |  |  |  |  |  |  |  | 32 | 39 | 38 | 59 | 34 | 45
Ae^MeCAST^MeCAGST^MeCTGASTASAGS^MeCTAe (ACATCAGTCTGATAAGCTA; listed as DNA, chemistry not fully specified) [Compound 25071] |  |  |  |  |  |  |  |  |  | 50 | 63 | 53 | 42 | 48 | 36
Te^MeCASA^MeCAST^MeCAGST^MeCTGASTAAGS^MeCTAe (TCAACATCAGTCTGATAAGCTA; cEt, 5-methyl C and phosphorothioate modifications, code letters not given here, further chemistry not given here) [Compound 25067] |  |  |  |  |  |  |  |  |  | 43 | 41 | 30 | 42 | 38 | 23
